Results taken from US20170020909A1, “METHODS OF TREATING GLAUCOMA USING AMP-ACTIVATED PROTEIN KINASE (AMPK) ACTIVATORS” (Massachusetts Eye and Ear Infirmary, priority 2014, published 2017).
“Also recorded” adds a separate entry of the source.

Assays:
Type in all cases: cell-based
[1] = system: primary cultured human TM cells; assay: Phalloidin (F-actin) immunofluorescent staining and morphology of primary cultured human TM cells
Description: FIG. 6. […] Human TM cells were plated on 8-well slides, treated as in FIG. 3, and then stained with phalloidin (F-actin) antibody. Nuclei were stained with DAPI. Representative immunofluorescent images shown above (n=3). Scale bar, 50 μm. Primary human trabecular meshwork (TM) cells were isolated, in accordance with the Declaration of Helsinki, and maintained in culture as described previously.^63 Independent primary human TM cell lines were generated from donors ranging in age from 35 to 72 years and no known history of ocular disease. Cell cultures were maintained, unless otherwise stated, in Dulbecco's modified eagle medium (Life Technologies, Grand Island, N.Y.) containing 20% fetal bovine serum, 1% L-glutamine (2 mM), and gentamicin (0.1 mg/ml) at 37° C. in a 10% CO2 atmosphere. Only TM cells from third through fifth passage were used. All experiments were performed using at least three different primary human TM cell lines. TM cells in 8 well-slides were fixed for 30 minutes with 4% paraformaldehyde in PBS (pH 7.4) at 4° C., then washed in PBS for 10 minutes twice at RT. Cells were permeabilized with 0.2% Triton-100 in PBS for 5 min and then washed in PBS and blocked in 3% bovine serum albumin (BSA) in PBS for 1 hr at RT. […] Nuclei were stained with TO-DAPI (Invitrogen), and labeled tissues were analyzed by fluorescent light microscopy using a Zeiss Observer3.1.

[2] = system: Acetyl-CoA carboxylase (ACC); assay: Time course immunoblot of p-ACC/total ACC in primary human TM cell lysates; conditions: 0.5 mM AICAR, human TM cells
Description: (§1) Primary human trabecular meshwork (TM) cells were isolated, in accordance with the Declaration of Helsinki, and maintained in culture as described previously.^63 Independent primary human TM cell lines were generated from donors ranging in age from 35 to 72 years and no known history of ocular disease. Cell cultures were maintained, unless otherwise stated, in Dulbecco's modified eagle medium (Life Technologies, Grand Island, N.Y.) containing 20% fetal bovine serum, 1% L-glutamine (2 mM), and gentamicin (0.1 mg/ml) at 37° C. in a 10% CO2 atmosphere. Only TM cells from third through fifth passage were used. […]
(§2) At the conclusion of each experiment for matricellular and ECM protein detection, conditioned media (CM) from TM cell cultures was harvested and centrifuged at 5000 rpm for 10 minutes at 4° C. The supernatant was then concentrated (Amicon Ultra-4 Filter Unit, 10 kDa; Millipore, Milford, Mass.), and protein content quantified using the DC Protein Assay kit adhering to manufacturer's protocols (Bio-Rad, Hercules, Calif.). […] Samples were then centrifuged at 14,000 rpm for 15 minutes at 4° C. and protein content quantified. […] The membranes were then washed three times with 1×TBS-T, scanned, and integrated band intensities were calculated using an infrared imaging system (Odyssey; Li-Cor, Lincoln, Nebr.). […]

AMPKα = assay: Time course immunoblot of p-AMPKα (Thr172)/total AMPKα in primary human TM cell lysates; conditions: 0.5 mM AICAR, human TM cells
Description: Primary human trabecular meshwork (TM) cells were isolated, in accordance with the Declaration of Helsinki, and maintained in culture as described previously.^63 Independent primary human TM cell lines were generated from donors ranging in age from 35 to 72 years and no known history of ocular disease. Cell cultures were maintained, unless otherwise stated, in Dulbecco's modified eagle medium (Life Technologies, Grand Island, N.Y.) containing 20% fetal bovine serum, 1% L-glutamine (2 mM), and gentamicin (0.1 mg/ml) at 37° C. in a 10% CO2 atmosphere. Only TM cells from third through fifth passage were used. All experiments were performed using at least three different primary human TM cell lines.
At the conclusion of each experiment for matricellular and ECM protein detection, conditioned media (CM) from TM cell cultures was harvested and centrifuged at 5000 rpm for 10 minutes at 4° C. The supernatant was then concentrated (Amicon Ultra-4 Filter Unit, 10 kDa; Millipore, Milford, Mass.), and protein content quantified using the DC Protein Assay kit adhering to manufacturer's protocols (Bio-Rad, Hercules, Calif.). For AMPK protein detection, cells were lysed for 3 minutes on ice with cold 1×RIPA buffer containing 0.5% Aprotinin, 0.1% EDTA, 1% EGTA, 0.5% PMSF, and 0.01% Leupeptin. Samples were then centrifuged at 14,000 rpm for 15 minutes at 4° C. and protein content quantified. In all experiments, equal amounts of protein were treated with 6× reducing buffer and boiled for 5 minutes. Samples were then electrophoresed in 10% SDS-polyacrylamide gels, alongside a pre-stained protein marker (Cell Signaling Technology Inc., Danvers, Ma). For conditioned media loading control, the resultant gels were stained with 0.1% Coomassie Brilliant Blue G-250 (Bio-Rad, Hercules Calif.) for 3 hours and were destained with fixing/destaining solution until clear bands were visible and contrasted well with the true blue background. Otherwise, proteins were transferred to nitrocellulose membranes (0.45-μm pore size; Invitrogen). […] The membranes were then washed three times with 1×TBS-T, scanned, and integrated band intensities were calculated using an infrared imaging system (Odyssey; Li-Cor, Lincoln, Nebr.). […]

RhoA = assay: Immunoblot of p-RhoA (Ser188)/total RhoA in human TM cell lysates; conditions: 0.5 mM AICAR
Description: as §1, §2

NC(=O)c1ncn([C@@H]2O[C@H](CO)[C@@H](O)[C@H]2O)c1N [AICAR, 5-Aminoimidazole-4-carboxamide riboside]
cell morphology ([1]; 0.5 mM AICAR, cultured TM cells (data not shown)): narrower cell bodies | F-actin staining and actin stress fiber formation ([1]; AICAR, basal and TGF-β2 stimulatory conditions): decreased F-actin staining and actin stress fiber formation; also recorded: decreased F-actin cytoskeletal staining, and fewer actin stress fibers | peak increase of phospho-total ACC ratio ([2]; at 6 hours): 6.6 fold | change of phospho-total ACC ratio ([2]; within 15 minutes): increased by a statistically significant degree | peak increase of phospho-total AMPK ratio (AMPKα; at 2 hours): greater than 2 fold | increase of phospho-total AMPK ratio, normalized to the zero time point (AMPKα; within 1 hour): 77% | duration of the phospho-total RhoA ratio increase (RhoA; through 24 hours): remained statistically significant through 24 hours | increase of phospho-total RhoA ratio (Ser188) (RhoA; within one hour, human TM cells): approximately 10 fold
